# Key:
# [1] = tested on: HER-2/neu positive breast cancer metastasized to lung and liver; test: Example III: breast cancer metastasized to lung and liver; type: in vivo, human; settings: patient, oral 5 mg/kg twice daily
# Method: After three months, the PPARγ ligand administration is continued in combination regimen with Taxol® at a dose of 175 mg/m^2 administered intravenously every three weeks.
# HER-2/neu mRNA = test: Northern blotting for HER-2/neu mRNA in 184B5/HER cells; type: cell-based, human; settings: 25 μM ciglitazone or 20 μM 15-d-PGJ2
# Method: Northern blotting was performed to evaluate whether PPARγ ligands decrease levels of HER-2/neu mRNA. 184B5/HER cells were treated with vehicle (0.01% dimethyl sulfoxide), 25 μM ciglitazone or 20 μM 15-d-PGJ2. Total cellular RNA was isolated from cell monolayers using an RNA isolation kit from Qiagen Inc. 10 μg of RNA was added to each lane. The 10 μg of total cellular RNA per lane were electrophoresed in a formaldehyde-containing 1.2% agarose gel and transferred to nylon-supported membranes. The blot was hybridized with probes that recognized HER-2/neu mRNA (Santa Cruz Biotechnology, Inc., Santa Cruz, Calif.) and 18S rRNA cDNA (Ambion, Inc., Austin, Tex.).
# [2] = molecular target: human PPARγ binding domain; settings: scintillation proximity assay, radioligand [3H]BRL 49653; values reported in Henke et al, Collins et al, Cobb et al; cited from earlier work
# [3] = tested on: non-small cell lung carcinoma where EGFR is overexpressed; test: Example VI: non-small cell lung carcinoma metastasized to liver; type: in vivo, human; settings: patient, oral 5 mg/kg twice daily
# Method: After one month, PPARγ ligand administration is continued in combination with infusion of cisplatin every four weeks at 60 mg/m^2 for 12 more weeks.
# [4] = tested on: EGFR in 184B5 mammary epithelial cells; test: immunoblot for EGFR in 184B5 cells; type: cell-based, human; settings: ciglitazone 5-30 μM or 15-d-PGJ2 5, 10 μM, 24 hours
# Method: The cells used were 184B5 cells. The 184B5 cell line was obtained from a collaborator and is an immortalized but non-tumorigenic human breast epithelial cell line that was established from a reduction mammaplasty and is described in Stampler, M. R, et al, Proc. Natl. Acad. Sci. USA 82, 2394-2398 (1985).
# (§1) 184B5 cells were maintained in MEM-KBM mixed in a ratio of 1:1 (basal medium) containing epidermal growth factor (10 ng/ml), hydrocortisone (0.5 μg/ml), transferrin (10 μg/ml), gentamicin (5 μg/ml), and insulin (10 μg/ml) (growth medium). 184B5 cells were grown to 60% confluence, trypsinized with 0.05% trypsin-2 mM ethylenediaminotetraacetic acid and plated for experimental use.
# 184B5 cells were treated with vehicle (0.01% dimethyl sulfoxide), ciglitazone (5, 10, 20, 30 μM) or 15-d-PGJ2 (5, 10 μM) for 24 hours. Cell lysates were prepared in RIPA buffer. Lysates were sonicated for 20 seconds on ice and centrifuged at 10,000×g for 10 minutes to sediment the particulate material. The protein concentration of the supernatant was measured by the method of Lowry,. O. H., et al, J. Biol. Chem. 193, 265-275 (1951). Cellular lysate protein (100 μg/lane) was loaded onto a 10% SDS-polyacrylamide gel, electrophoresed and subsequently transferred onto a nitrocellulose membrane(Schleicher & Schuell Keene, N. H.). […]
# EGFR transcription = test: nuclear run-off assay of EGFR transcription in 184B5 cells; type: cell-based, human; settings: ciglitazone 5, 10, 25 μM, 24 hours
# Method: To determine whether PPARγ ligands inhibit the transcription of EGFR, a nuclear run-off assay was carried out. 184B5 cells were treated with vehicle (0.01% dimethyl sulfoxide) or ciglitazone (5, 10, 25 μM) for 24 hours. 2.5×10^5 cells were plated in four T150 dishes for each condition. Cells were grown in growth medium until 60% confluent. Nuclei were isolated and stored in liquid nitrogen. The EGFR and 18S rRNA cDNAs were immobilized onto a nitrocellulose membrane (Schleicher & Schuell, Keene, N.H.) and prehybridized overnight in hybridization buffer.
# [5] = tested on: HER-2/neu positive breast cancer metastasized to bone; test: Example IV: breast cancer metastasized to bone; type: in vivo, human; settings: patient after failure of prior chemotherapy, oral 5 mg/kg twice daily plus HERCEPTIN
# Method: After 90 days, oral cyclophosphamide at a dose of 3 mg/kg/day and doxorubicin administered intravenously weekly at a dose of 20 mg/m^2, are added to the drug regimen.
# HER-2/neu in BT474 cells = test: immunoblot for HER-2/neu in BT474 cells; type: cell-based, human; settings: 25 μM ciglitazone
# Text: The 184B5/HER cell line was obtained from a collaborator and was derived by stably transfecting 184B5 cells with a mutationally activated HER-2/neu oncogene; these cells form rapidly growing tumors when injected into athymic nude mice. The 184B5/HER cell line is described in Pierce, J. H., et al., Oncogene 6, 1189-1194 (1991). The BT-474 cell line is a human breast cancer adenocarcinoma cell line which overexpresses HER-2/neu, and was obtained from the American Type Culture Collection (Manassas, Va.) and bears accession number ATCC HBT-20.
# as §1, with “184B5/HER cells” for “184B5 cells”, “(5 μg/ml)” for “(5 μg/ml),”, “medium). […]” for “medium). 184B5”, “ethylenediaminotetraacetic acid,” for “ethylenediaminotetraacetic acid”, “use. […]” for “use.”
# 184B5/HER cells were treated with vehicle (0.01% dimethylsulfoxide), 25 μM ciglitazone (Biomol, Plymouth Meeting, Pennsylvania) or 20 μM 15-d-PGJ2 (Biomol, Plymouth Meeting, Pennsylvania) for 24 hours. […] The protein concentration of the supernatant was measured by the method of Lowry, O. H., et al, J. Biol. Chem. 193, 265-275 (1951). […]
# [6] = tested on: HER-2/neu positive breast cancer; test: Example I: adjuvant therapy after mastectomy; type: in vivo, human; settings: patient, oral 5 mg/kg twice per day for five years after mastectomy
compound,measurement,setting,value
CC1(COc2ccc(CC3SC(=O)NC3=O)cc2)CCCCC1 (stereo not drawn) [ciglitazone],tumor burden,[1],reduced tumor burden
same,amounts of HER-2/neu mRNA (Northern blot),HER-2/neu mRNA,decrease amounts of HER-2/neu mRNA
same,pKi in binding assay using the human PPARγ binding domain,[2],5.51±0.09
same,tumor burden,[3],reduced tumor burden
same,amounts of EGFR (immunoblot),[4],decreased amounts of EGFR
same,EGFR transcription (nuclear run-off),EGFR transcription,dose-dependent suppression of EGFR transcription
same,tumor burden,[5],reduced tumor burden
same,amounts of HER-2/neu (immunoblot),HER-2/neu in BT474 cells,decreased amounts of HER-2/neu
same,recurrence of breast cancer,[6],Recurrence of breast cancer does not occur

# Source: US6291496A, “Treating cancers associated with overexpression of class I family of receptor tyrosine kinases” (priority 1999, dated 2001)
